Where “and” joins values, the source holds several entries; their conditions need not be identical. Identical values can stand only once.
Conditions: Fluid (supercritical or subcritical phases), Buoyancy - hydrostatic balance with magnetic suspension - two sinkers

CCC [propane]
Conditions | mass density
380 K, 4703.9 kPa | 148.078 kg/m3 [middle of 5 runs]
380 K, 4705.6 kPa | 148.36 kg/m3 [middle of 4 runs]
380 K, 4705.7 kPa | 148.363 kg/m3
380 K, 4755.7 kPa | 155.492 kg/m3 [middle of 5 runs]
380 K, 4879.5 kPa | 178.216 kg/m3 and 178.213 kg/m3
380 K, 4879.6 kPa | 178.236 kg/m3 and 178.204 kg/m3 and 178.214 kg/m3
380 K, 4957.6 kPa | 197.127 kg/m3
380 K, 4957.7 kPa | 197.117 kg/m3 and 197.11 kg/m3
380 K, 4957.8 kPa | 197.115 kg/m3 [middle of 4 runs]
380 K, 4957.9 kPa | 197.119 kg/m3
380 K, 5001.3 kPa | 208.689 kg/m3
380 K, 5001.5 kPa | 208.739 kg/m3
380 K, 5002.2 kPa | 208.955 kg/m3 and 208.946 kg/m3 and 208.942 kg/m3
380 K, 5002.3 kPa | 208.948 kg/m3 and 208.946 kg/m3
380 K, 5041.6 kPa | 219.674 kg/m3 and 219.68 kg/m3 and 219.675 kg/m3
380 K, 5041.7 kPa | 219.681 kg/m3 [middle of 4 runs]
380 K, 5067.9 kPa | 226.412 kg/m3 and 226.42 kg/m3
380 K, 5068 kPa | 226.427 kg/m3
380 K, 5068.1 kPa | 226.418 kg/m3
380 K, 5141.5 kPa | 243.559 kg/m3 and 243.562 kg/m3 and 243.564 kg/m3
380 K, 5141.6 kPa | 243.563 kg/m3 [middle of 5 runs]
380 K, 5268.6 kPa | 264.989 kg/m3 and 264.991 kg/m3
380 K, 5268.8 kPa | 264.985 kg/m3 and 264.995 kg/m3
380 K, 5408.3 kPa | 280.991 kg/m3 [middle of 4 runs]
380 K, 5408.4 kPa | 280.991 kg/m3 and 280.992 kg/m3 and 280.986 kg/m3
380 K, 6684.1 kPa | 336.97 kg/m3 and 336.962 kg/m3
380 K, 6684.2 kPa | 336.972 kg/m3
380 K, 6684.3 kPa | 336.974 kg/m3 and 336.97 kg/m3
380 K, 6684.4 kPa | 336.974 kg/m3
380 K, 7975.3 kPa | 360.582 kg/m3
380 K, 7975.4 kPa | 360.58 kg/m3
380 K, 7975.5 kPa | 360.582 kg/m3 [middle of 6 runs]
380 K, 7975.6 kPa | 360.58 kg/m3 and 360.581 kg/m3
380 K, 7975.7 kPa | 360.586 kg/m3
380 K, 7975.8 kPa | 360.584 kg/m3 and 360.583 kg/m3
380 K, 10919 kPa | 391.154 kg/m3 [middle of 4 runs]
380 K, 10920 kPa | 391.156 kg/m3 and 391.155 kg/m3
380 K, 11880 kPa | 398.187 kg/m3 and 398.185 kg/m3
380 K, 11881 kPa | 398.189 kg/m3 and 398.186 kg/m3
380 K, 15945 kPa | 420.987 kg/m3 and 420.99 kg/m3
380 K, 15946 kPa | 420.986 kg/m3
380 K, 19820 kPa | 436.807 kg/m3 and 436.806 kg/m3
380 K, 19821 kPa | 436.811 kg/m3 and 436.808 kg/m3 and 436.81 kg/m3
380 K, 23098 kPa | 447.702 kg/m3 [middle of 5 runs]
380 K, 23099 kPa | 447.703 kg/m3 and 447.702 kg/m3
380 K, 23697 kPa | 449.488 kg/m3 and 449.487 kg/m3 and 449.489 kg/m3
380 K, 29645 kPa | 465.242 kg/m3 and 465.241 kg/m3
380 K, 29646 kPa | 465.242 kg/m3 and 465.241 kg/m3
380 K, 34344 kPa | 475.596 kg/m3 [middle of 4 runs]
380 K, 34345 kPa | 475.597 kg/m3
380.01 K, 954.8 kPa | 14.3809 kg/m3
380.01 K, 954.81 kPa | 14.381 kg/m3
380.01 K, 3513.7 kPa | 73.3411 kg/m3
380.01 K, 5268.9 kPa | 264.989 kg/m3
380.01 K, 6684.6 kPa | 336.973 kg/m3
380.01 K, 6684.7 kPa | 336.971 kg/m3
400 K, 336.43 kPa | 4.5554 kg/m3 and 4.5553 kg/m3
400 K, 599.95 kPa | 8.2683 kg/m3
400 K, 599.96 kPa | 8.2685 kg/m3 and 8.2684 kg/m3
400 K, 956.18 kPa | 13.5094 kg/m3
400 K, 957.16 kPa | 13.5243 kg/m3
400 K, 957.89 kPa | 13.5351 kg/m3
400 K, 959.04 kPa | 13.5529 kg/m3
400 K, 962.98 kPa | 13.6116 kg/m3
400 K, 1542.1 kPa | 22.7724 kg/m3
400 K, 1542.2 kPa | 22.7738 kg/m3 and 22.7745 kg/m3
400 K, 1542.3 kPa | 22.7764 kg/m3
400 K, 1542.4 kPa | 22.7771 kg/m3
400 K, 2380.3 kPa | 37.7472 kg/m3 and 37.7486 kg/m3 and 37.7481 kg/m3
400 K, 2380.5 kPa | 37.7508 kg/m3 and 37.7503 kg/m3
400 K, 3308.6 kPa | 57.6872 kg/m3 [middle of 5 runs]
400 K, 3901.8 kPa | 73.2165 kg/m3 [middle of 4 runs]
400 K, 3901.9 kPa | 73.2188 kg/m3
400 K, 3902 kPa | 73.2191 kg/m3
400 K, 4691.9 kPa | 99.4254 kg/m3 and 99.4238 kg/m3 and 99.4251 kg/m3
400 K, 4692 kPa | 99.4292 kg/m3 and 99.4262 kg/m3
400 K, 5668.4 kPa | 147.912 kg/m3
400 K, 5668.5 kPa | 147.917 kg/m3 [middle of 6 runs]
400 K, 5673.1 kPa | 148.232 kg/m3
400 K, 5673.2 kPa | 148.239 kg/m3 and 148.234 kg/m3 and 148.236 kg/m3
400 K, 5673.3 kPa | 148.236 kg/m3
400 K, 5676.5 kPa | 148.439 kg/m3 and 148.438 kg/m3
400 K, 5676.6 kPa | 148.445 kg/m3 and 148.444 kg/m3 and 148.437 kg/m3
400 K, 5676.7 kPa | 148.447 kg/m3 [middle of 8 runs]
400 K, 5676.8 kPa | 148.451 kg/m3 [middle of 9 runs]
400 K, 5676.9 kPa | 148.458 kg/m3 [middle of 6 runs]
400 K, 5677 kPa | 148.462 kg/m3 [middle of 5 runs]
400 K, 5677.1 kPa | 148.464 kg/m3 and 148.466 kg/m3
400 K, 5677.2 kPa | 148.477 kg/m3 and 148.472 kg/m3
400 K, 5677.4 kPa | 148.487 kg/m3 and 148.49 kg/m3
400 K, 5677.9 kPa | 148.509 kg/m3
400 K, 5678 kPa | 148.518 kg/m3 and 148.516 kg/m3 and 148.517 kg/m3
400 K, 5678.1 kPa | 148.519 kg/m3 and 148.526 kg/m3 and 148.518 kg/m3
400 K, 5678.2 kPa | 148.528 kg/m3 [middle of 13 runs]
400 K, 5678.3 kPa | 148.528 kg/m3 and 148.529 kg/m3
400 K, 5781.6 kPa | 155.313 kg/m3 and 155.311 kg/m3
400 K, 5781.7 kPa | 155.314 kg/m3 and 155.311 kg/m3
400 K, 6338.3 kPa | 196.876 kg/m3 and 196.877 kg/m3
400 K, 6338.4 kPa | 196.877 kg/m3 [middle of 5 runs]
400 K, 6338.5 kPa | 196.877 kg/m3
400 K, 6630.2 kPa | 219.389 kg/m3
400 K, 6630.3 kPa | 219.386 kg/m3 and 219.389 kg/m3
400 K, 6630.4 kPa | 219.389 kg/m3 [middle of 4 runs]
400 K, 6978.6 kPa | 243.19 kg/m3 and 243.192 kg/m3
400 K, 6978.7 kPa | 243.193 kg/m3 and 243.189 kg/m3 and 243.196 kg/m3
400 K, 6978.8 kPa | 243.19 kg/m3
400 K, 6978.9 kPa | 243.193 kg/m3
400 K, 7736.9 kPa | 280.444 kg/m3 and 280.447 kg/m3
400 K, 7737 kPa | 280.444 kg/m3
400 K, 7737.1 kPa | 280.449 kg/m3 and 280.444 kg/m3
400 K, 7737.2 kPa | 280.444 kg/m3
400 K, 7737.3 kPa | 280.449 kg/m3 and 280.45 kg/m3
400 K, 7912.9 kPa | 286.854 kg/m3
400 K, 7913.2 kPa | 286.868 kg/m3 and 286.866 kg/m3 and 286.857 kg/m3
400 K, 7913.4 kPa | 286.864 kg/m3
400 K, 10112 kPa | 336.235 kg/m3 [middle of 5 runs]

— the NIST ThermoML archive (doi:10.1021/je900124n)
